Measurements: US8653096B2, “Chemokine receptor antagonists and methods of use thereof” (Millennium Pharmaceuticals, Inc., priority 2001, dated 2014)

Biological target: T1, RANTES/MIP-1α chemokine receptor (CCR1) in THP-1 cell membranes (Homo sapiens, UniProt P32246)
T1 construct: Membranes were prepared from THP-1 cells (ATCC #TIB202); host or cells: THP-1 cells (membrane preparation)
T1 sequence (P32246 1-355): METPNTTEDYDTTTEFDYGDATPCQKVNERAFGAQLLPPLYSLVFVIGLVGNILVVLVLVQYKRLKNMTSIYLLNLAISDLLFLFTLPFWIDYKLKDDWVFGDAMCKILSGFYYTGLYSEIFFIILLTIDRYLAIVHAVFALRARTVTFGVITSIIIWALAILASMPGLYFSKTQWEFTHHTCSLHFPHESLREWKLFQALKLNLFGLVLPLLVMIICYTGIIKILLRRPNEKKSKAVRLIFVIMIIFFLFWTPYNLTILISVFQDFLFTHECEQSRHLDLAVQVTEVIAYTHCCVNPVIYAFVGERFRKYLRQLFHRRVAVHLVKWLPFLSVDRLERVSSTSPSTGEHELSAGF
Assay: Receptor binding assay: 125I-RANTES or 125I-MIP-1α binding to THP-1 cell membranes
Settings: inhibitor concentration required for 50% inhibition of specific binding; 125I-RANTES or 125I-MIP-1α as ligand, THP-1 cell membranes; read-out: IC50

| Compound | IC50 [µM] |
| --- | --- |
| COC(=O)CN(Cc1ccc(Cl)cc1)C1CCN(CCC=C2c3cc(C(C)(C)O)ccc3OCc3ncccc32)CC1 [Example 500, [(4-Chloro-benzyl)-(1-{3-[7-(1-hydroxy-1-methyl-ethyl)-11H-10-oxa-1-aza-dibenzo[a,d]cyclohepten-5-ylidene]-propyl}-piperidin-4-yl)-amino]-acetic acid methyl ester] | < 10 |
| CC(C)(O)c1ccc2c(c1)C(=CCCN1CCC(N(CC(=O)O)Cc3ccc(Cl)cc3)CC1)c1cccnc1CO2 [Example 501, [(4-Chloro-benzyl)-(1-{3-[7-(1-hydroxy-1-methyl-ethyl)-11H-10-oxa-1-aza-dibenzo[a,d]cyclohepten-5-ylidene]-propyl}-piperidin-4-yl)-amino]-acetic acid] | < 10 |
| CC(C)(O)c1ccc2c(c1)C(=CCCN1CC[C@](O)(c3ccc(Cl)cc3)C(C)(C)C1)c1cccnc1CO2 [Example 502, S-4-(4-Chloro-phenyl)-1-{3-[7-(1-hydroxy-1-methyl-ethyl)-11H-10-oxa-1-aza-dibenzo[a,d]cyclohepten-5-ylidene]-propyl}-3,3-dimethyl-piperidin-4-ol] | < 1 |
| CC(C)(O)c1ccc2c(c1)C(=CCCN1CC[C@@](O)(c3ccc(Cl)cc3)C(C)(C)C1)c1cccnc1CO2 [Example 503, R-4-(4-Chloro-phenyl)-1-{3-[7-(1-hydroxy-1-methyl-ethyl)-11H-10-oxa-1-aza-dibenzo[a,d]cyclohepten-5-ylidene]-propyl}-3,3-dimethyl-piperidin-4-ol] | < 1 |
| CC(=O)c1ccc2c(c1)C(=CCCN1CC[C@](O)(c3ccc(Cl)cc3)C(C)(C)C1)c1cccnc1CO2 [Example 504, S-1-(5-{3-[4-(4-Chloro-phenyl)-4-hydroxy-3,3-dimethyl-piperidin-1-yl]-propylidene}-5,11-dihydro-10-oxa-1-aza-dibenzo[a,d]cyclohepten-7-yl)-ethanone] | < 1 |
| CC(=O)c1ccc2c(c1)C(=CCCN1CC[C@@](O)(c3ccc(Cl)cc3)C(C)(C)C1)c1cccnc1CO2 [Example 505, R-1-(5-{3-[4-(4-Chloro-phenyl)-4-hydroxy-3,3-dimethyl-piperidin-1-yl]-propylidene}-5,11-dihydro-10-oxa-1-aza-dibenzo[a,d]cyclohepten-7-yl)-ethanone] | < 1 |
| CC(=O)OCCOc1ccc2c(c1)C(=CCCN1CCC(O)(c3ccc(Cl)cc3)C(C)(C)C1)c1cccnc1CO2 (centres unmarked) [Example 506, Acetic acid 2-(5-{3-[4-(4-chloro-phenyl)-4-hydroxy-3,3-dimethyl-piperidin-1-yl]-propylidene}-5,11-dihydro-10-oxa-1-aza-dibenzo[a,d]cyclohepten-7-yloxy)-ethyl ester] | < 1 |
| CC1(C)CN(CCC=C2c3cc(OCCO)ccc3OCc3ncccc32)CCC1(O)c1ccc(Cl)cc1 (centres unmarked) [Example 507, 4-(4-Chloro-phenyl)-1-{3-[7-(2-hydroxy-ethoxy)-11H-10-oxa-1-aza-dibenzo[a,d]cyclohepten-5-ylidene]-propyl}-3,3-dimethyl-piperidin-4-ol] | < 1 |
| COCCOc1ccc2c(c1)C(=CCCN1CCC(O)(c3ccc(Cl)cc3)C(C)(C)C1)c1cccnc1CO2 (centres unmarked) [Example 508, 4-(4-Chloro-phenyl)-1-{3-[7-(2-methoxy-ethoxy)-11H-10-oxa-1-aza-dibenzo [a,d]cyclohepten-5-ylidene]-propyl}-3,3-dimethyl-piperidin-4-ol] | < 1 |
| CC1(C)CN(CCC=C2c3cc(O)ccc3OCc3ncccc32)CCC1(O)c1ccc(Cl)cc1 (centres unmarked) [Example 509, 5-{3-[4-(4-Chloro-phenyl)-4-hydroxy-3,3-dimethyl-piperidin-1-yl]-propylidene}-5,11-dihydro-10-oxa-1-aza-dibenzo[a,d]cyclohepten-7-ol] | < 1 |
| CCOC(=O)C(C)(C)Oc1ccc2c(c1)C(=CCCN1CCC(O)(c3ccc(Cl)cc3)C(C)(C)C1)c1cccnc1CO2 (centres unmarked) [Example 510, 2-(5-{3-[4-(4-Chloro-phenyl)-4-hydroxy-3,3-dimethyl-piperidin-1-yl]-propylidene}-5,11-dihydro-10-oxa-1-aza-dibenzo[a,d]cyclohepten-7-yloxy)-2-methyl-propionic acid ethyl ester] | < 1 |
| CC(C)(CO)Oc1ccc2c(c1)C(=CCCN1CCC(O)(c3ccc(Cl)cc3)C(C)(C)C1)c1cccnc1CO2 (centres unmarked) [Example 511, 4-(4-Chloro-phenyl)-1-{3-[7-(2-hydroxy-1,1-dimethyl-ethoxy)-11H-10-oxa-1-aza-dibenzo[a,d]cyclohepten-5-ylidene]-propyl}-3,3-dimethyl-piperidin-4-ol] | < 1 |
| CC(C)(Oc1ccc2c(c1)C(=CCCN1CCC(O)(c3ccc(Cl)cc3)C(C)(C)C1)c1cccnc1CO2)C(=O)O (centres unmarked) [Example 512, 2-(5-{3-[4-(4-Chloro-phenyl)-4-hydroxy-3,3-dimethyl-piperidin-1-yl]-propylidene}-5,11-dihydro-10-oxa-1-aza-dibenzo[a,d]cyclohepten-7-yloxy)-2-methyl-propionic acid] | < 1 |
| CC(C)(Oc1ccc2c(c1)C(=CCCN1CCC(O)(c3ccc(Cl)cc3)C(C)(C)C1)c1cccnc1CO2)C(N)=O (centres unmarked) [Example 513, 2-(5-{3-[4-(4-Chloro-phenyl)-4-hydroxy-3,3-dimethyl-piperidin-1-yl]-propylidene}-5,11-dihydro-10-oxa-1-aza-dibenzo[a,d]cyclohepten-7-yloxy)-2-methyl-propionamide] | < 1 |
| COC(=O)COc1ccc2c(c1)C(=CCCN1CCC(O)(c3ccc(Cl)cc3)C(C)(C)C1)c1cccnc1CO2 (centres unmarked) [Example 514, (5-{3-[4-(4-Chloro-phenyl)-4-hydroxy-3,3-dimethyl-piperidin-1-yl]-propylidene}-5,11-dihydro-10-oxa-1-aza-dibenzo[a,d]cyclohepten-7-yloxy)-acetic acid methyl ester] | < 1 |
| CC1(C)CN(CCC=C2c3cc(OCC(=O)O)ccc3OCc3ncccc32)CCC1(O)c1ccc(Cl)cc1 (centres unmarked) [Example 515, (5-{3-[4-(4-Chloro-phenyl)-4-hydroxy-3,3-dimethyl-piperidin-1-yl]-propylidene}-5,11-dihydro-10-oxa-1-aza-dibenzo[a,d]cyclohepten-7-yloxy)-acetic acid] | < 1 |
| CC1(C)CN(CCC=C2c3cc(OCC(N)=O)ccc3OCc3ncccc32)CCC1(O)c1ccc(Cl)cc1 (centres unmarked) [Example 516, 2-(5-{3-[4-(4-Chloro-phenyl)-4-hydroxy-3,3-dimethyl-piperidin-1-yl]-propylidene}-5,11-dihydro-10-oxa-1-aza-dibenzo [a,d]cyclohepten-7-yloxy)-acetamide] | < 1 |
| CC(C)(O)COc1ccc2c(c1)C(=CCCN1CCC(O)(c3ccc(Cl)cc3)C(C)(C)C1)c1cccnc1CO2 (centres unmarked) [Example 517, 4-(4-Chloro-phenyl)-1-{3-[7-(2-hydroxy-2-methyl-propoxy)-11H-10-oxa-1-aza-dibenzo[a,d]cyclohepten-5-ylidene]-propyl}-3,3-dimethyl-piperidin-4-ol] | < 1 |
| CC1(C)CN(CCC=C2c3cc(CC(O)CO)ccc3OCc3ncccc32)CCC1(O)c1ccc(Cl)cc1 (centres unmarked) [Example 518, 3-(5-{3-[4-(4-Chloro-phenyl)-4-hydroxy-3,3-dimethyl-piperidin-1-yl]-propylidene}-5,11-dihydro-10-oxa-1-aza-dibenzo[a, d]cyclohepten-7-yl)propane-1,2-diol] | < 1 |
| CC1CN(CCC=C2c3cc(C(C)(C)O)ccc3OCc3ncccc32)CCN1c1ccc(Cl)cc1 (centres unmarked) [Example 519, 2-(5-{3-[4-(4-Chloro-phenyl)-3-methyl-piperazin-1-yl]-propylidene}-5,11-dihydro-10-oxa-1-aza-dibenzo[a,d]cyclohepten-7-yl)-propan-2-ol] | < 1 |
| CC(C)(O)c1ccc2c(c1)C(=CCCN1CCC3(CC1)OC(=O)Nc1ccc(Cl)cc13)c1cccnc1CO2 [Example 520] | < 1 |
| CC(C)(O)c1ccc2c(c1)C(=CCCN1CCC(C)(c3ccccc3Cl)CC1)c1cccnc1CO2 [Example 521, 2-(5-{3-[4-(2-Chloro-phenyl)-4-methyl-piperidin-1-yl]-propylidene}-5,11-dihydro-10-oxa-1-aza-dibenzo[a,d]cyclohepten-7-yl)-propan-2-ol] | < 1 |
| CC1CN(CCC=C2c3cc(OCC(C)(C)O)ccc3OCc3ncccc32)CCC1(O)c1ccc(Cl)cc1 (centres unmarked) [Example 522, 4-(4-Chloro-phenyl)-1-{3-[7-(2-hydroxy-2-methyl-propoxy)-11H-10-oxa-1-aza-dibenzo[a,d]cyclohepten-5-ylidene]-propyl}-3-methyl-piperidin-4-ol] | < 1 |
| CC(C)(O)c1ccc2c(c1)C(=CCCN1CCC(O)(c3ccc(Cl)cc3)C(C)(C)C1)c1ccc[n+]([O-])c1CO2 (centres unmarked) [Example 523, 4-(4-Chloro-phenyl)-1-{3-[7-(1-hydroxy-1-methyl-ethyl)-1-oxy-11H-10-oxa-1-aza-dibenzo[a,d]cyclohepten-5-ylidene]-propyl}-3,3-dimethyl-piperidin-4-ol] | < 1 |
| CCN(Cc1ccc(Cl)cc1)[C@@H]1CCN(CCC=C2c3cc(C(C)(C)O)ccc3OCc3ncccc32)C1 [Example 524, (R)-2-[5-(3-{3-[(4-Chloro-benzyl)-ethyl-amino]-pyrrolidin-1-yl}-propylidene)-5,11-dihydro-10-oxa-1-aza-dibenzo[a,d]cyclohepten-7-yl]-propan-2-ol] | < 1 |
| CCN(c1ccc(Cl)cc1)[C@@H]1CCN(CCC=C2c3cc(C(C)(C)O)ccc3OCc3ncccc32)C1 [Example 525, (R)-2-[5-(3-{3-[(4-Chloro-phenyl)-ethyl-amino]-pyrrolidin-1-yl}-propylidene)-5,11-dihydro-10-oxa-1-aza-dibenzo[a,d]cyclohepten-7-yl]-propan-2-ol] | < 20 |
